Test results published in patent US20210045385A1, “PYRIDAZINONE-SUBSTITUTED KETOXIMES AS HERBICIDES” (FMC Corporation, priority 2018, published 2021).

Key:
Format in all cases: in vivo
[1] = system: barnyardgrass (Echinochloa crus-galli); test: Test B flooded paddy test, visual plant response rating; conditions: 250 g ai/ha, Flood, applied to paddy water, 2-leaf stage, evaluated after 13 to 15 days
Procedure, shortened: (§1)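 Plants were raised to the 2-leaf stage, then pots were flooded to 3 cm above the soil and test compound was applied directly into the paddy water. Water depth was held for the whole test; after 13 to 15 days in a greenhouse, responses were scored visually against controls.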

[2] = system: ducksalad (Heteranhera limosa); test: as above; conditions: 250 g ai/ha, Flood, applied to paddy water, 2-leaf stage, evaluated after 13 to 15 days
Procedure, shortened: as §1

[3] = system: rice (Oryza sativa); test: as above; conditions: 250 g ai/ha, Flood, applied to paddy water, 2-leaf stage, evaluated after 13 to 15 days
Procedure, shortened: as §1

[4] = system: sedge, umbrella (small-flower umbrella sedge, Cyperus difformis); test: as above; conditions: 250 g ai/ha, Flood, applied to paddy water, 2-leaf stage, evaluated after 13 to 15 days
Procedure, shortened: as §1

[5] = system: barnyardgrass (Echinochloa crus-galli); test: Test A preemergence, visual plant response rating; conditions: for Barnyardgrass plant response rating: preemergence, 0 to 100 scale, 0 no effect, 100 complete control; for Barnyardgrass plant response rating (0 to 100 scale): 500 g ai/ha Preemergence, approx. 10 days
Procedure, shortened: (§2)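 Formulated in a non-phytotoxic solvent mixture including surfactant, each test chemical was sprayed onto the soil surface after sowing, or onto seedlings 2 to 10 cm high. Roughly 10 days later, plants were compared with untreated controls and rated for injury from 0 (no effect) to 100 (complete control).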

[6] = system: kochia (Kochia scoparia); test: Test A preemergence, visual plant response rating; conditions: for Kochia plant response rating: preemergence, 0 to 100 scale, 0 no effect, 100 complete control; for Kochia plant response rating (0 to 100 scale): 500 g ai/ha Preemergence, approx. 10 days
Procedure, shortened: as §2

[7] = system: Italian ryegrass (Lolium multiflorum); test: Test A preemergence, visual plant response rating; conditions: for Ryegrass, Italian plant response rating: preemergence, 0 to 100 scale, 0 no effect, 100 complete control; for Ryegrass, Italian plant response rating (0 to 100 scale): 500 g ai/ha Preemergence, approx. 10 days
Procedure, shortened: as §2

[8] = system: pigweed (Amaranthus retroflexus); test: Test A preemergence, visual plant response rating; conditions: for Pigweed plant response rating: preemergence, 0 to 100 scale, 0 no effect, 100 complete control; for Pigweed plant response rating (0 to 100 scale): 500 g ai/ha Preemergence, approx. 10 days
Procedure, shortened: as §2

[9] = system: foxtail, giant (giant foxtail, Setaria faberii); test: Test A preemergence, visual plant response rating; conditions: for Foxtail, Giant plant response rating: preemergence, 0 to 100 scale, 0 no effect, 100 complete control; for Foxtail, Giant plant response rating (0 to 100 scale): 500 g ai/ha Preemergence, approx. 10 days
Procedure, shortened: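 Greenhouse pot test in loam–sand soil mix: compound in a surfactant-containing non-phytotoxic solvent applied preemergence (directed soil spray) or postemergence (one- to two-leaf plants, 2–10 cm). Injury scored visually after ~10 days, 0–100.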

[10] = system: ragweed (common ragweed, Ambrosia elatior); test: Test A preemergence, visual plant response rating; conditions: for Ragweed plant response rating: preemergence, 0 to 100 scale, 0 no effect, 100 complete control; for Ragweed plant response rating (0 to 100 scale): 500 g ai/ha Preemergence, approx. 10 days
Procedure, shortened: as §2

[11] = system: blackgrass (Alopecurus myosuroides); test: Test A postemergence, visual plant response rating; conditions: for Blackgrass plant response rating: Postemergence, 125 g ai/ha, 0 to 100 scale (0 no effect, 100 complete control)
Procedure, shortened: as §2

[12] = system: barnyardgrass (Echinochloa crus-galli); test: Test A postemergence, visual plant response rating; conditions: for Barnyardgrass plant response rating: Postemergence, 125 g ai/ha, 0 to 100 scale (0 no effect, 100 complete control)
Procedure, shortened: as §2

[13] = system: kochia (Kochia scoparia); test: Test A postemergence, visual plant response rating; conditions: for Kochia plant response rating: Postemergence, 125 g ai/ha, 0 to 100 scale (0 no effect, 100 complete control)
Procedure, shortened: as §2

[14] = system: Italian ryegrass (Lolium multiflorum); test: Test A postemergence, visual plant response rating; conditions: for Ryegrass, Italian plant response rating: 125 g ai/ha, 0 to 100 scale (0 no effect, 100 complete control)
Procedure, shortened: as §2

[15] = system: pigweed (Amaranthus retroflexus); test: Test A postemergence, visual plant response rating; conditions: for Pigweed plant response rating: Postemergence, 125 g ai/ha, 0 to 100 scale (0 no effect, 100 complete control)
Procedure, shortened: as §2

[16] = system: foxtail, giant (giant foxtail, Setaria faberii); test: Test A postemergence, visual plant response rating; conditions: for Foxtail, Giant plant response rating: Postemergence, 125 g ai/ha, 0 to 100 scale (0 no effect, 100 complete control)
Procedure, shortened: as §2

[17] = system: ragweed (common ragweed, Ambrosia elatior); test: Test A postemergence, visual plant response rating; conditions: for Ragweed plant response rating: Postemergence, 125 g ai/ha, 0 to 100 scale (0 no effect, 100 complete control)
Procedure, shortened: as §2

[18] = system: corn (Zea mays); test: Test A postemergence, visual plant response rating; conditions: for Corn plant response rating: Postemergence, 125 g ai/ha, 0 to 100 scale (0 no effect, 100 complete control)
Procedure, shortened: as §2

[19] = system: wheat (Triticum aestivum); test: Test A postemergence, visual plant response rating; conditions: for Wheat plant response rating: 0 to 100 scale (0 no effect, 100 complete control)
Procedure, shortened: as §2

[20] = system: galium (catchweed bedstraw, Galium aparine); test: Test A postemergence, visual plant response rating; conditions: for Galium plant response rating: Postemergence, 125 g ai/ha, 0 to 100 scale (0 no effect, 100 complete control)
Procedure, shortened: as §2

[21] = 500 g ai/ha, postemergence, 0 is no effect, 100 is complete control
[22] = 1000 g ai/ha Postemergence, approx. 10 days

| SMILES | Plant response rating, Barnyardgrass (0 to 100 scale, 0 is no effect, 100 is complete control) [1] | Plant response rating, Ducksalad (0 to 100 scale, 0 is no effect, 100 is complete control) [2] | Plant response rating, Rice (0 to 100 scale, 0 is no effect, 100 is complete control) [3] | Plant response rating, Sedge, Umbrella (0 to 100 scale, 0 is no effect, 100 is complete control) [4] | Barnyardgrass plant response rating ([5]; 125 g ai/ha) | Barnyardgrass plant response rating (0 to 100 scale) [5] | Kochia plant response rating ([6]; 125 g ai/ha) | Kochia plant response rating (0 to 100 scale) [6] | Ryegrass, Italian plant response rating ([7]; 125 g ai/ha) | Ryegrass, Italian plant response rating (0 to 100 scale) [7] | Pigweed plant response rating ([8]; 125 g ai/ha) | Pigweed plant response rating (0 to 100 scale) [8] | Foxtail, Giant plant response rating ([9]; 125 g ai/ha) | Foxtail, Giant plant response rating (0 to 100 scale) [9] | Ragweed plant response rating ([10]; 125 g ai/ha) | Ragweed plant response rating (0 to 100 scale) [10] | Blackgrass plant response rating (0 to 100 scale) [11, 21] | Blackgrass plant response rating [11] | Barnyardgrass plant response rating (0 to 100 scale) [12, 21] | Barnyardgrass plant response rating [12] | further results |
| --- | --- | --- | --- | --- | --- | --- | --- | --- | --- | --- | --- | --- | --- | --- | --- | --- | --- | --- | --- | --- | --- |
| CCO/N=C(\c1c(O)c(Cl)nn(C)c1=O)c1cccc2ccccc12 [Compound 146] | 0 | 0 | 0 | 0 | 60 | 60 | 30 | 100 | 0 | 0 | 80 | 100 | 70 | 80 | 90 | 100 | 60 | 30 | 60 | 30 | Kochia plant response rating (0 to 100 scale) [13, 21]: 80; Kochia plant response rating [13]: 60; Ryegrass, Italian plant response rating (0 to 100 scale) [14, 21]: 0; Ryegrass, Italian plant response rating (0 to 100 scale) ([14]; Postemergence, rate not given, approx. 10 days): 0; Pigweed plant response rating (0 to 100 scale) [15, 21]: 90; Pigweed plant response rating [15]: 70; Foxtail, Giant plant response rating (0 to 100 scale) [16, 21]: 70; Foxtail, Giant plant response rating [16]: 60; Ragweed plant response rating (0 to 100 scale) [17, 21]: 100; Ragweed plant response rating [17]: 90; Corn plant response rating (0 to 100 scale) [18, 21]: 20; Corn plant response rating [18]: 30; Wheat plant response rating ([19]; Postemergence, 500 g ai/ha): 0; Wheat plant response rating (0 to 100 scale) ([19]; Postemergence, approx. 10 days): 0; Galium plant response rating (0 to 100 scale) [20, 21]: 90; Galium plant response rating [20]: 70 |
| CON=C(c1cc(C)ccc1Cl)c1c(O)c(C)nn(C)c1=O [Compound 67] | 0 | 0 | 0 | 0 | 0 | 0 | 0 | 10 | 0 | 10 | 0 | 0 | 0 | 0 | 10 | 10 | 30 | 0 | 0 | 0 | Kochia plant response rating (0 to 100 scale) [13, 21]: 20; Kochia plant response rating [13]: 20; Ryegrass, Italian plant response rating (0 to 100 scale) [14, 21]: 20; Ryegrass, Italian plant response rating ([14]; Postemergence): 10; Pigweed plant response rating (0 to 100 scale) [15, 21]: 30; Pigweed plant response rating [15]: 0; Foxtail, Giant plant response rating (0 to 100 scale) [16, 21]: 10; Foxtail, Giant plant response rating [16]: 0; Ragweed plant response rating (0 to 100 scale) [17, 21]: 70; Ragweed plant response rating [17]: 50; Corn plant response rating (0 to 100 scale) [18, 21]: 0; Corn plant response rating [18]: 0; Wheat plant response rating (0 to 100 scale) [19, 21]: 0; Wheat plant response rating ([19]; Postemergence, 125 g ai/ha): 0; Galium plant response rating (0 to 100 scale) [20, 21]: 80; Galium plant response rating [20]: 70 |
| CON=C(c1cc(Cl)ccc1C(F)(F)F)c1c(O)c(C)nn(C)c1=O [Compound 97] | 0 | 0 | 0 | 0 | 70 | 90 | 20 | 50 | 80 | 100 | 40 | 90 | 80 | 90 | 60 | 100 | 90 | 70 | 60 | 40 | Kochia plant response rating (0 to 100 scale) [13, 21]: 70; Kochia plant response rating [13]: 60; Ryegrass, Italian plant response rating (0 to 100 scale) [14, 21]: 100; Ryegrass, Italian plant response rating ([14]; Postemergence): 90; Pigweed plant response rating (0 to 100 scale) [15, 21]: 80; Pigweed plant response rating [15]: 80; Foxtail, Giant plant response rating (0 to 100 scale) [16, 21]: 80; Foxtail, Giant plant response rating [16]: 70; Ragweed plant response rating (0 to 100 scale) [17, 21]: 80; Ragweed plant response rating [17]: 70; Corn plant response rating (0 to 100 scale) [18, 21]: 40; Corn plant response rating [18]: 0; Wheat plant response rating (0 to 100 scale) [19, 21]: 50; Wheat plant response rating ([19]; Postemergence, 125 g ai/ha): 30; Galium plant response rating (0 to 100 scale) [20, 21]: 90; Galium plant response rating [20]: 70 |
| Cc1cccc(/C(=N/OC(C)C)c2c(O)c(C)nn(C)c2=O)c1 [Compound 18] | 0 | 0 | 0 | 0 | – | – | – | – | – | – | – | – | – | – | – | – | – | – | – | – | Barnyardgrass plant response rating ([5]; 1000 g ai/ha): 30; Kochia plant response rating ([6]; 1000 g ai/ha): 50; Ryegrass, Italian plant response rating ([7]; 1000 g ai/ha): 60; Pigweed plant response rating ([8]; 1000 g ai/ha): 100; Foxtail, Giant plant response rating ([9]; 1000 g ai/ha): 20; Ragweed plant response rating ([10]; 1000 g ai/ha): 80; Blackgrass plant response rating (0 to 100 scale) [11, 22]: 10; Barnyardgrass plant response rating (0 to 100 scale) [12, 22]: 10; Kochia plant response rating (0 to 100 scale) [13, 22]: 30; Ryegrass, Italian plant response rating (0 to 100 scale) [14, 22]: 60; Pigweed plant response rating (0 to 100 scale) [15, 22]: 90; Foxtail, Giant plant response rating (0 to 100 scale) [16, 22]: 40; Ragweed plant response rating (0 to 100 scale) [17, 22]: 100; Corn plant response rating (0 to 100 scale) [18, 22]: 0; Wheat plant response rating (0 to 100 scale) [19, 22]: 20; Galium plant response rating (0 to 100 scale) [20, 22]: 90 |
| CO/N=C(/c1ccsc1C)c1c(O)c(C)nn(C)c1=O [Compound 135] | 0 | 0 | 0 | 0 | 0 | 0 | 0 | 10 | 0 | 0 | 0 | 20 | 0 | 0 | 0 | 10 | 0 | 0 | 0 | 0 | Kochia plant response rating (0 to 100 scale) [13, 21]: 10; Kochia plant response rating [13]: 0; Ryegrass, Italian plant response rating (0 to 100 scale) [14, 21]: 30; Ryegrass, Italian plant response rating ([14]; Postemergence): 0; Pigweed plant response rating (0 to 100 scale) [15, 21]: 30; Pigweed plant response rating [15]: 20; Foxtail, Giant plant response rating (0 to 100 scale) [16, 21]: 0; Foxtail, Giant plant response rating [16]: 0; Ragweed plant response rating (0 to 100 scale) [17, 21]: 20; Ragweed plant response rating [17]: 0; Corn plant response rating (0 to 100 scale) [18, 21]: 0; Corn plant response rating [18]: 0; Wheat plant response rating (0 to 100 scale) [19, 21]: 0; Wheat plant response rating ([19]; Postemergence, 125 g ai/ha): 0; Galium plant response rating (0 to 100 scale) [20, 21]: 40; Galium plant response rating [20]: 30 |
